Where two headings read alike, the source gives them in different places.
Key:
NT1 tobacco cell growth = assay: Effects of MTI on NT1 tobacco cell growth and single cell production in glycerol medium; format: cell-based
Protocol: The effects of Microtubule inhibitors (MTI) on tobacco cell growth in suspension culture were examined. […] Both the control and MTI-containing flasks contained a final concentration of 0.5-0.1% (v/v) DMSO. The growth of these chemicals was evaluated in EP12 medium for BY2 cells and NT1B medium for BTI-NT1 cells were the carbon source is substituted with 3% glycerol. The response of these cells was compared with the same medium composition but with 3% sucrose as the Carbon source.

[1] = tested on: Carrot suspension cultures; assay: Single cell production from carrot suspension cultures; parameters: colony growth after plating single cells on M-medium: dose or concentration left out as unconfirmed
Protocol: Carrot callus cultures have been initiated from the in vitro maintained Daucus carota L. ssp. sativus cv Sativa plants. Isolated leaf petiole explants were cultured on semi solid medium (Mashayekhi-Nezamabadi, 2000). Suspension cultures were initiated from the callus by transferring 50 mg of friable callus in 1.5 ml of LSBY2 medium (Appendix I) in 24 micro well plate. The fastest growing suspensions were then transferred to flasks with 1 ml suspension in 35 ml LSBY2 liquid medium. The cultures were maintained in diffused light in a 7 day sub culture cycle.
A 1.5-ml diluted single cell cultures were plated on M-medium (Appendix II) in 15×100 Petri-plates and spread out using the loop. Untreated carrot suspension aggregates were also diluted to the same density and plated similarly to compare the growth responses between these cultures.
LSBY2 medium consists of Murashige and Skoog macro and micro-salts (Murashige and Skoog 1962) supplemented with 30 g sucrose (w/v), 100 mg/l myoinositol, 200 mg/l KH2PO4, 1 mg/l thiamine and […] 2,4-dichlorophenoxyacetic acid. The medium is adjusted pH 5.8 before autoclaving at 120° C. Suspension volume at the 7th day of culture, at stationary phase was used to initiate cultures. A 1-ml volume of carrot suspension inoculums is transferred into 50 ml LSBY2 medium and then the cultures were placed on shakers at 150 rpm in the dark at 28° C. The MTI compounds used were added along with the fresh medium at the culture initiation cycle.
A regenerable carrot cryopreserved line (D2-40-018) was thawed and cultured in Linsmeier-Skoog (LS) medium (Nagata, T., Nemoto, Y., and Hasezawa, S. (1992) Int. Rev. Cyto 132, 1-30). Medium salts were purchased from PhytoTechnology Laboratories, Catalog #L689. An actively growing suspension line was established within a week, and the maintenance line was sub-cultured by transferring 2 ml PCV to 58 ml of LS BY2 suspension medium at 28° C. on an orbital shaker (Innova-3300) at 125 rpm under diffused light on a 7 day culture cycle.

[2] = tested on: JTNT1 tobacco cell suspension cultures; assay: Single cell production, growth and viability of JTNT1 suspension with microtubule inhibitors in 24-well plates, glycerol medium
Excerpt: JTNT1 Tobacco Suspension Cultures. […] Furthermore, Suc stabilizes preformed microtubules, making an examination of the effects of MTIs on preformed microtubules unfeasible. In addition, sucrose increases solution viscosity substantially, and tubulin polymerization is altered at least in part by slowed dimer and polymer diffusion rates. Thus, it was important to have low or no sucrose in medium where the single cell production. Thus, a new JTNT1 line habituated in Glycerol was developed for this study.
Each of the 24 well contained 1 ml of JTNT1 suspension. The 24-well plates were kept on an Innova 4900 Multi Environmental Shaker with special clamps and harnesses to allow stacking of plates up to 6 plates high. The plates were rotated at a speed of 130 rpm and 25° C. in dark.
Single Cell Production. Each compound was dissolved in dimethyl sulfoxide (DMSO) to provide 0.5 Molar stock solutions. One ml of JTNT1 suspension (1 ml PCV/20 ml tobacco media) was added to each well of the 24 well plates. To each well an individual chemical was added to achieve the desired concentrations (at 1 μM, 3 μM, and 10 μM). The cultures were allowed to grow for 7 days on the Innova Shaker. Each day turbidity measurements was taken on each well using a SpectraMax M2^e by Molecular devices (set at 600 absorbance, with 5 readings taken per well). On day 7, cells were observed using the Leica 5000 inverted confocal microscope for formation of single cells and cell viability.

[3] = tested on: BY2, NT1, Petite Havana (PH) and Xanthi (Xan) and Jimson Weed (JM) Suspension Cells; assay: Effects of tubulin inhibitors on growth and cell separation, all suspension types tested; format: cell-based
Excerpt: BY2 suspension-cultured cells were obtained from Japan tobacco and maintained in LSBY2 medium in a 7 day cycle. Jimsonweed suspension and Pettite Havana tobacco suspensions were initiated from callus initiated at DAS and Xanthi suspensions were procured as a sample from Professor Jack Widholm from UIUC, IL. JT-NT1 suspension cells, obtained from Washington University that are maintained in NT1B medium in 7 day cycle were used only for the pectin degradation enzyme study to separate the cells into single cells. The cells were cultured in shake flasks at 25-28° C. in dark on orbital shakers at 150 rpm. […] Stock concentrations of both the tubulin polymerization inhibitors used in this investigation were dissolved in DMSO to prepare a 0.5 M stock solution. The concentration tested for the pectinase and pectolyase enzymes were in the range of 0.0005% to 0.005%. […] NT-1 cells were originally developed from Nicotiana tabacum L. cv. bright yellow 2.
Cell expansion and separation were observed by light microscopy (with Nomarski and dark field optics). Spherical cells and single cells were counted by using a hemacytometer to determine the degree of cell expansion and separation, respectively. […] In order to determine the presence of the cell wall in this single cell cultures optical brightener was used. Calcafluor obtained from Sigma, which is a specific fluorescent dye for cellulose is used in this study, and the cellulose-Calcafluor complexing was observed by fluorescence microscopy (Zeiss Photomicroscope). […] Prior to use, the Calcafluor stain was centrifuged at 15,000 g for 2 min. to remove precipitates. A drop or two of the Calcafluor solution was added to the separated cells.

COc1cc2c(c(OC)c1OC)-c1ccc(OC)c(=O)cc1[C@@H](NC(C)=O)CC2 [Colchicine]
concentration effective for the production of single cells (NT1 tobacco cell growth): 0.25 to 0.5 mM
character of single cell production [1]: homogenous production of single cells
time of single cell production ([1]; 1 mM): 3 to 7 days
nuclear ploidy of single cells ([1]; 1 mM, 14-21 days of continuous treatments): nuclear polyploidy
viability by fluorescein diacetate stain ([1]; 1 mM, 4 days and 11 days): very active and viable
frequency of nuclear polyploidy ([1]; 1 mM, cultures up to 14 days): < 1%
nuclei of super single cells ([1]; 1 mM, up to 28 days): extensive lobed nuclei
colony growth after plating single cells on M-medium ([1]; 7 days in colchicine, 4 weeks growth in the dark): several discrete colonies
concentration necessary to produce single cells, lower end of range [2]: ≥ 50 µM
concentration necessary to produce single cells, upper end of range [2]: ≤ 2 mM
increase in diameter of single cells ([2]; NT1B medium with 3% glycerol): 5 fold
cell expansion and separation ([3]; 0.5 mM colchicine, all the other cell suspensions tested): partially occurred

CCOC(=O)COc1nn(-c2ccccc2)c(-c2ccccc2)c1Cl [DAS-PMTI-1]
concentrations causing inhibition of mitosis, and cell death (NT1 tobacco cell growth): over 100 nM
threshold of tobacco cell growth inhibition (NT1 tobacco cell growth): ~50 nM
micro-nuclei in single cells (microscopic observations) (NT1 tobacco cell growth; 25 nM): did not show the presence of micro-nuclei
fresh weights versus controls during the stationary phase (NT1 tobacco cell growth; 25 nM (sentence ends with 50 nM), 3% glycerol): slightly greater
growth rate of the cells (NT1 tobacco cell growth; 25 nM, over a period of 10 days): not lowering the growth rate
effect on growth (NT1 tobacco cell growth; 0.5-1.0 mM): complete inhibition and cell death
time to complete inhibition and cell death (NT1 tobacco cell growth; 0.5-1.0 mM, from culture initiation): ≤ 3 days
concentration effective for the production of single cells (NT1 tobacco cell growth; glycerol as total carbon source, NT1 cells): 5e-06 to 2.5e-05 mM
character of single cell production [1]: assorted cell shapes
biomass versus respective controls ([2]; 1 uM, sucrose or glycerol medium): did not reduce the biomass of the cells significantly
potency relative to colchicine in affecting the growth of the cultures [3]: 100-1000 ×
cell growth ([3]; 0.5 mM): affected very significantly
cell death ([3]; 0.5 mM, after 7 days of treatment): considerable cell death
cell segregation ([3]; all the cell suspension types tested): partial segregation of cells with general spherical shape
